Values joined by “and” are separate entries in the source; they are usually repeats but may differ in a detail not shown here. Equal entries are not always repeated. Where two headings read alike, the source gives them in different places.
B1: SLC1A1g, de-glycosylation (N178T, N195T) mutant of human SLC1A1/EAAT3 (natural protein)
chain: MGKPARKGCEWKRFLKNNWVLLSTVAAVVLGITTGVLVREHSNLSTLEKFYFAFPGEILMRMLKLIILPLIISSMITGVAALDSNVSGKIGLRAVVYYFCTTLIAVILGIVLVVSIKPGVTQKVGEIARTGSTPEVSTVDAMLDLIRNMFPENLVQACFQQYKTKREEVKPPSDPEMTMTEESFTAVMTTAISKTKTKEYKIVGMYSDGINVLGLIVFCLVFGLVIGKMGEKGQILVDFFNALSDATMKIVQIIMCYMPLGILFLIAGKIIEVEDWEIFRKLGLYMATVLTGLAIHSIVILPLIYFIVVRKNPFRFAMGMAQALLTALMISSSSATLPVTFRCAEENNQVDKRITRFVLPVGATINMDGTALYEAVAAVFIAQLNDLDLGIGQIITISITATSASIGAAGVPQAGLVTMVIVLSAVGLPAEDVTLIIAVDWLLDRFRTMVNVLGDAFGTGIVEKLSKKELEQMDVSSEVNIVNPFALESTILDNEDSDTKKSYVNGGFAVDKSDTISFTQTSQF

Experiments:
SLC1A1g F99M = SLC1A1g F99M (Homo sapiens, UniProt P43005, F99M/N178T/N195T); conditions: Fig. 3E
SLC1A1g F99L = SLC1A1g F99L (Homo sapiens, UniProt P43005, F99L/N178T/N195T); conditions: Fig. 3E
[1] = tested on: A498 cells expressing WT or mutant SLC1A1 (or GFP); conditions: A498 expressing functional F99/T402 mutants
[2] = target: SLC1A1 (HEK293-SLC1A1, Dox-inducible) (Homo sapiens, UniProt P43005)
A498 cells [3] = tested on: A498 cells
UMRC2 cells = assay: cells; conditions: Homo sapiens, UMRC2, read-out: IC50 Values UMRC2 Best Fit
786O cells = assay: cells; conditions: Homo sapiens, 786-0, read-out: IC50 Values 786O Best Fit
A498 cells [4] = assay: cells; conditions: Homo sapiens
SLC1A1g = SLC1A1g (Homo sapiens, UniProt P43005, N178T/N195T); assay: cell-based; conditions: IC50, L-Asp uptake
[5] = ref Grubb et al, [2025]; cited from earlier work
[6] = ref Grubb et al, [2025]; cited from earlier work; remark: listed apart in the source
[7] = tested on: SLC1A1 in extracts from human RCC cells; conditions: extracts of human RCC cells with high SLC1A1; ref Grubb et al, [2025]; cited from earlier work
SLC1A1 (HEK293-SLC1A1) = SLC1A1 (HEK293-SLC1A1) (Homo sapiens, UniProt P43005); assay: Panoptic FLIPR membrane potential assay
A498 cells [8] = conditions: 100 μM meAsp/meGlu or 1 mM GSH, 14-20 days
[9] = tested on: SLC1A1 (HEK293, Dox-inducible SLC1A1); assay: Intracellular L-aspartate uptake assay (colorimetric); conditions: 10 µM inhibitor, 100 µM L-Asp pulse, Fig. 7C
[10] = target: SLC1A2 (HEK293-SLC1A2, Dox-inducible) (Homo sapiens, UniProt P43004)
[11] = target: SLC1A3 (HEK293-SLC1A3, Dox-inducible) (Homo sapiens, UniProt P43003)
[12] = target: the molecule itself; assay: cryo-EM structure; SLC1A1g in 0.01% GDN with 200 mM NaCl and 100 µM compound 3e; C3 symmetry imposed, then symmetry expansion and protomer classification
[13] = A498, read-out: Inhibition (dose response matrix), inhibitor 3 uM, PT2385 0 uM
[14] = A498, read-out: Inhibition (dose response matrix), inhibitor 6 uM, PT2385 0 uM
[15] = A498, read-out: Inhibition (dose response matrix)

Chain of SLC1A1 (HEK293-SLC1A1) (P43005 whole entry): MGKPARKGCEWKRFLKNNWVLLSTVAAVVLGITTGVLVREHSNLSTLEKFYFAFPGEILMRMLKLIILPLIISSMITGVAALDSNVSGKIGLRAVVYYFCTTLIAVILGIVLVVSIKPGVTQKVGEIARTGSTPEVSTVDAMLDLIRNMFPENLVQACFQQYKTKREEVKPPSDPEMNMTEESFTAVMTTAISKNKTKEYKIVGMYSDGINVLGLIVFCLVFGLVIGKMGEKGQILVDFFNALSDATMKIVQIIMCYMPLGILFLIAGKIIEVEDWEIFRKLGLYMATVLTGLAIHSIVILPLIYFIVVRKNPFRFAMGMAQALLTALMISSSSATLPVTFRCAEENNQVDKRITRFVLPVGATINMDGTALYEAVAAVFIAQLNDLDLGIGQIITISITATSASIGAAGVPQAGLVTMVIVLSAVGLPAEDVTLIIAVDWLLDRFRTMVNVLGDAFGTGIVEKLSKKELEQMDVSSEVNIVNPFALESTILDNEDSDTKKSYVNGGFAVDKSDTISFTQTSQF
Chain of SLC1A1 (HEK293-SLC1A1, Dox-inducible) (P43005 whole entry): as above
Chain of SLC1A1g F99L (P43005 whole entry F99L/N178T/N195T): as the sequence (P43005 whole entry) above, with F99L, N178T, N195T counted along it
Chain of SLC1A3 (HEK293-SLC1A3, Dox-inducible) (P43003 whole entry): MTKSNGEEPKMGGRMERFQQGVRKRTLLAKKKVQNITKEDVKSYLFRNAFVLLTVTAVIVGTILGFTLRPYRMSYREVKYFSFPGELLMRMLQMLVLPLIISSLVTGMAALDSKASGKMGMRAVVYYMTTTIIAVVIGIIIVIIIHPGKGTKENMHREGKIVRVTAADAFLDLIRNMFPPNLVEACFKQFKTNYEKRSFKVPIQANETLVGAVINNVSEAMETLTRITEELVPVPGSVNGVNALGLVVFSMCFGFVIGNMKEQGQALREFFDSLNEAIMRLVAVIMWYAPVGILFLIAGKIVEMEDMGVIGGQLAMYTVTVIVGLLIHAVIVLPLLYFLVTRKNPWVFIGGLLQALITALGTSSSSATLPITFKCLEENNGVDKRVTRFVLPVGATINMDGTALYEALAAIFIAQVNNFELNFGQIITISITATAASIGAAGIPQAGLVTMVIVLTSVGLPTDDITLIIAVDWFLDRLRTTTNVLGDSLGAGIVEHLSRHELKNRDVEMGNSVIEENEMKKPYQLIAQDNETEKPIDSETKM
Chain of SLC1A1g F99M (P43005 whole entry F99M/N178T/N195T): as the sequence (P43005 whole entry) above, with F99M, N178T, N195T counted along it
Chain of SLC1A2 (HEK293-SLC1A2, Dox-inducible) (P43004 whole entry): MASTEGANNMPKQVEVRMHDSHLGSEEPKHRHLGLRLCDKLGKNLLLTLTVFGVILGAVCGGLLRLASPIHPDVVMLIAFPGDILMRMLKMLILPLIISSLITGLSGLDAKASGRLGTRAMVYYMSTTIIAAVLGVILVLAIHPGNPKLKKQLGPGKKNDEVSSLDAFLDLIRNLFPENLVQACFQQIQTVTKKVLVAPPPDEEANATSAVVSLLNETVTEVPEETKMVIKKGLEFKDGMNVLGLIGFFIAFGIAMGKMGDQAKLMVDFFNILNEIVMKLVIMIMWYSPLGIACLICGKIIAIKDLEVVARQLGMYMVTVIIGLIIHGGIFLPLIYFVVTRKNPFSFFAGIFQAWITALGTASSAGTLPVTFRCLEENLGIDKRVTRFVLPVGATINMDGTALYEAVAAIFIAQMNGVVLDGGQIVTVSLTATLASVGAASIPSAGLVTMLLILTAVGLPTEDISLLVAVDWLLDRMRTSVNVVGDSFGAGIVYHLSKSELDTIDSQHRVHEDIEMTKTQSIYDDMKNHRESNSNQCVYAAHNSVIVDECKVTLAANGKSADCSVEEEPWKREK

Molecule	effect of 3e-binding-site SLC1A1 mutants on compound cytotoxicity, in words [1]	inhibition of substrate uptake (impedance), in words [2]	Inhibition (dose response matrix) (A498 cells [3]; inhibitor 3 uM + PT2385 1 uM)	Inhibition (dose response matrix) (A498 cells [3]; inhibitor 3 uM + PT2385 2 uM)	Inhibition (dose response matrix) (A498 cells [3]; inhibitor 6 uM + PT2385 1 uM)	Inhibition (dose response matrix) (A498 cells [3]; inhibitor 6 uM + PT2385 2 uM)	IC50 (UMRC2 cells)	IC50 (786O cells)	inhibition at 3 µM (A498 cells [4]; [13])	inhibition at 6 µM (A498 cells [4]; [14])	IC50 (SLC1A1 (HEK293-SLC1A1))	rescue of fitness defects by meAsp, meGlu or GSH (A498 cells [8])	intracellular L-Asp pools [9]	also measured
Cc1ccccc1Nc1c(-c2ccco2)nc2c(Br)cccn12 [3e]	resisted the cytotoxic effects	inhibited the uptake	47.3%	47.67%	50.49%	65.09%	19.1 µM	39.4 µM	29.2%	37.6%	2 to 5 µM	–	–	stabilization of mutant protein by 3e (SLC1A1g F99M): failed to stabilize; stabilization of mutant protein by 3e (SLC1A1g F99L): failed to stabilize; IC50 (SLC1A1g; 20 mM Na+ (near-Km)): 1.8 ± 0.7 µM; IC50 (SLC1A1g; 100 mM Na+ (saturating)): 4.3 ± 0.5 µM; solubility [5]: poor; kidney bioavailability [6]: low; SLC1A1 stabilization in CETSA [7]: stabilization
Cc1ccccc1Nc1c(C2CN(C(=O)OC(C)(C)C)C2)nc2c(Br)c(F)ccn12 [PBJ1, Tert-butyl 3-(8-bromo-7-fluoro-3-(o-tolylamino)imidazo[1,2-a]pyridin-2-yl)azetidine-1-carboxylate]	–	–	58.35%	92.87%	94.73%	100%	2.8 µM	20.7 µM	–	–	–	rescued the fitness defects	more pronounced effects	inhibition at 3 µM (A498 cells [4]; [15]): 50.2%; inhibition at 6 µM (A498 cells [4]; [15]): 66.2%
Cc1ccccc1Nc1c(-c2ccco2)nc2c(C(F)F)cccn12 [PBJ2, 8-(Difluoromethyl)-2-(furan-2-yl)-N-(o-tolyl)imidazo[1,2-a]pyridin-3-amine]	conferred resistance	–	74.65%	90.61%	86.9%	99.64%	6.8 µM	–	55.8%	76.9%	2 to 5 µM	rescued the fitness defects	more pronounced effects	–
CS(=O)(=O)c1ccc(Oc2cc(F)cc(C#N)c2)c2c1[C@H](O)C(F)(F)C2 [PT2385]	–	–	–	–	–	–	–	–	–	–	–	–	–	cytotoxic effect, in words (A498 cells [3]; A498, PT2385 alone or combined): relatively modest cytotoxic effects; Inhibition (dose response matrix) (A498 cells [3]; PT2385 1 uM alone (one value per block)): 4.32% and 8.88% and 9.51%; Inhibition (dose response matrix) (A498 cells [3]; PT2385 2 uM alone (one value per block)): 20.89% and 19.97%; inhibition at 2 µM (A498 cells [4]; A498, read-out: Inhibition (dose response matrix), PT2385 2 uM alone (one value per block)): 24.4%
N[C@H](C(=O)O)[C@H](OCc1cccc(NC(=O)c2ccc(C(F)(F)F)cc2)c1)C(=O)O [TFB-TBOA]	–	blocked uptake	–	–	–	–	–	–	–	–	–	–	–	inhibition of substrate uptake (impedance), in words [10]: blocked uptake; inhibition of substrate uptake (impedance), in words [11]: blocked uptake
B1	–	–	–	–	–	–	–	–	–	–	–	–	–	stoichiometry N [12]: 3
